# According to patent US7820707B2, “Heterocyclic derivatives” (N.V. Organon, priority 2006, dated 2010):
# Biological target: T1, AMPA (GluR1) receptor (Homo sapiens, UniProt P42261)
# T1 construct: expressed in transfected cells; host or cells: HEK cells (HEK.GluR1(i), kept under hygromycin selection)
# Experiment: Ca2+ influx assay (FLEXstation, Fluo-3) for positive modulation of the AMPA (GluR1) receptor in HEK.GluR1(i) cells
# Type: cell-based
# Settings: glutamate +/- test compound, Ca2+ response with fluo3-AM
# Text: The compounds in this invention may be tested using a biological assay which measures Ca^2+ influx mediated through positive modulation of the AMPA (GluR1) receptor using standard techniques in the art such as, but not limited to, a FLEXstation (manufactured by Molecular Devices, Sunnyvale, Calif.). An optical readout using fluorescent probes is employed to measure ion channel dependent changes in intracellular ion concentration or membrane potential. The assay utilises the Ca^2+ conductance of functional homomeric GluR1(i) AMPA receptors to generate glutamate-dependent Ca^2+ responses. Influx of Ca^2+ through the ion channel is measured indirectly through an increase in intracellular Ca^2+ levels using the calcium sensitive dye such as, but not limited to, Fluo-3 (Molecular Devices, Sunnyvale, Calif.) in FLEXstation. A positive AMPA receptor modulator, in the presence of glutamate, will result in an influx of Ca^2+ through the ion channel which can be measured indirectly through an increase in intracellular Ca^2+ levels using the calcium sensitive dye Fluo-3 in FLEXstation.
# HEK.GluR1(i) cells were maintained in DMEM supplemented with 10% fetaclone II, 1% non-essential amino acids and 150 μg/mL hygromycin, at 37° C./5% CO2. […]
# T1 sequence (P42261 19-906 isoform P42261-2 limits assumed, species assumed): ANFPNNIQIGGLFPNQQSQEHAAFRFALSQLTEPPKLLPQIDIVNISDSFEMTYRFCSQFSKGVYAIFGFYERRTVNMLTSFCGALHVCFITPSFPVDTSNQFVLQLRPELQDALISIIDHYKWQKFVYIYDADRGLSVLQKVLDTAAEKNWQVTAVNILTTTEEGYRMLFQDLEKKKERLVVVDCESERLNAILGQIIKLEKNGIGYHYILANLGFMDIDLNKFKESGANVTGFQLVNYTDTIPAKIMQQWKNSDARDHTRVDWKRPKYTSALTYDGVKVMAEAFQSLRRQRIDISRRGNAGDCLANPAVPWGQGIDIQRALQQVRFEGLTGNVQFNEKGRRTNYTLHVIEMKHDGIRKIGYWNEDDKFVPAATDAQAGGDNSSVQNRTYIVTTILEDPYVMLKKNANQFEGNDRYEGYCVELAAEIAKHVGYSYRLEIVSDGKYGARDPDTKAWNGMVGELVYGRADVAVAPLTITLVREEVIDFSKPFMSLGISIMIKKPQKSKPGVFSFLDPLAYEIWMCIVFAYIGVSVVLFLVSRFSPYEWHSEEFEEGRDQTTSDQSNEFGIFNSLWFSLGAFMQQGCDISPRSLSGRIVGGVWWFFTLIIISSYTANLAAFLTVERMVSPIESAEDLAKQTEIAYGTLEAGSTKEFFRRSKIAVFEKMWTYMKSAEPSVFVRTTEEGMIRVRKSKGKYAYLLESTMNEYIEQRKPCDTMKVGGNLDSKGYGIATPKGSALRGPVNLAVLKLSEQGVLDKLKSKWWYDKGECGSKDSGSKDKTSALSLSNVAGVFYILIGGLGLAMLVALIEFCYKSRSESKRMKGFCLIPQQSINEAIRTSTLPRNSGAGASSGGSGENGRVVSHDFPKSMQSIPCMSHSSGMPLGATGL
compound,measurement,value
"CC(O)c1cn(CC(=O)Nc2sc3c(c2C(N)=O)CCCC3)nc1C(F)(F)F (stereo not shown) [Example 67, 2-(2-(4-(1-hydroxyethyl)-3-(trifluoromethyl)-1H-pyrazol-1-yl)acetamido)-4,5,6,7-tetrahydrobenzo[b]thiophene-3-carboxamide]",EC50,2.2 µM
